The values below are quoted from earlier work in patent US12274713B2, “Nutraceutical composition comprising a water-soluble fullerene and a ketone” (priority 2021, dated 2025).

Molecules are shown by their SMILES.

The data set has as its system tumor growth and metastasis. To be noted: Prylutska et al.

For `c12c3c4c5c1c1c6c7c2c2c8c3c3c9c4c4c%10c5c5c1c1c6c6c%11c7c2c2c7c8c3c3c8c9c4c4c9c%10c5c5c1c1c6c6c%11c2c2c7c3c3c8c4c4c9c5c1c1c6c2c3c41` [60-carbon fullerene, Buckminsterfullerene], the “tumor growth and metastasis” value is “inhibit tumor growth and metastasis”.
